Consider 7 molecules from patent US20060206946A1, “Method of disrupting heme transport in nematodes and of modelling and evaluating eukaryotic heme transport” (priority 2005, published 2006).

The subject of series [1] is C. elegans. Briefly: Metabolic labeling with 59Fe or 59Fe-heme, heme isolation and TLC. The settings on record: for radiolabel signal in heme extracted from labeled worms: 9.4×10^6 DPM, mCeHR. The format is in vivo, Caenorhabditis elegans. How it is done: (E) Metabolic labeling in C. elegans cultured in the presence of heme. Synchronized L1 larvae were grown in mCeHR medium containing either ^59Fe or ^59Fe-heme (9.4×10^6 DPM) and the worms harvested as gravid adults. Heme was extracted and concentrated, and then resolved by TLC followed by detection with a PhosphorImager (top panel). Lane 5, ^59Fe-heme control. Radiolabeled bands were quantified in a gamma counter and CPM normalized to total protein (bottom panel). To correct for non-specific binding of the radiolabeled Fe and heme, parallel experiments were conducted in the presence of 1 mM sodium azide (samples 1 and 3).
Preparation of hemin, hemin analogs and [^59Fe]Heme. Fresh stock solutions of hemin or hemin analogs (Frontier Sciences, Logan, Utah) were prepared immediately prior to use by dissolving required amounts in 0.3 M ammonium hydroxide. The pH of the stock solution was adjusted to pH 8.0 with 6 N HCl, and filter sterilized ([…]). The upper limit of free iron was estimated to be 3.8 nM/1 μM of hemin chloride by inductively coupled plasma-mass spectrometry (ICP-MS) analysis. For synthesis of ^59Fe-heme, 50 ml of glacial acetic acid was stirred under a constant flow of N2 at 60° C. followed by addition of 12 mg of protoporphyrin IX in pyridine for 30 min. To this mixture, 0.85 μCi of FeCl3 (specific activity 35.77 mCi/mg, Perkin Elmer, Boston, Mass.) was stirred in for an additional 3 h. Heme was extracted from this mixture with ethyl acetate followed by extensive washes with 4 N HCl and distilled water to remove unincorporated protoporphyrin IX and iron. The heme thus obtained was concentrated by evaporation of the ethyl acetate using a RotaVapor and frozen at −20° C. until further use. Total amount of ^59Fe-heme synthesized by this method was measured using a Packard Gamma Counter (˜21% efficiency). The purity of heme was determined by thin layer chromatography using silica gel 60 matrix in an NH4OH-saturated chamber with 2,6-lutidine/water solvent. We estimated the specific activity of ^59Fe-heme synthesized to be ˜2.8×10^6 DPM/nmol.
Metabolic Labeling, Heme Isolation and Thin Layer Chromatography. Equal numbers of L1 worms were grown at 20° C. in mCeHR medium with 20 μM hemin and supplemented with 9.4×10^6 DPM of either ^59Fe-heme or ^59FeCl3. Radiolabeled adult worms were harvested by first incubating them in M9 buffer for 30 min to empty the gut contents. […] It was experimentally determined that this concentration of NaN3 was not lethal to worms. […] Plates were exposed to a PhosphorImager and the radiolabel signal corresponding to heme was excised and analyzed using a gamma counter. Counts (DPM) obtained were normalized for protein as determined by the bicinchoninic acid method (Sigma) performed on pre-aliquoted samples of intact worms. […]

Series [2] concerns C. elegans. The format is in vivo, Caenorhabditis elegans. The settings on record: in vivo. As for the experimental part:
(C) Fluorescent metabolic labeling of worms with either 40 μM hemin (images 1, 4) or 40 μM ZnMP/4 μM hemin (images 2, 3, 5, 6) for 3 h followed by confocal microscopy with a 546 laser (images 1-3) and DIC optics (images 4-6). Arrowheads indicate ZnMP fluorescence accumulation within intestinal cells and developing embryos. For clarity, the boxed image in 2 is magnified in images 3 and 6. (Bar=100 μm).
(D) Worms were incubated with 40 μM ZnMP/4 μM hemin for 16 h followed by a chase with 40 μM hemin. Worms were analyzed by epifluorescence microscopy (TRITC channel) and DIC optics. Experiments were performed either in the absence (images 1-4) or presence (images 5-8) of NaN3 during the chase periods to test for the non-specific loss of ZnMP fluorescence. Photomicrograph 4 is shown at a lower power to depict the complete loss of ZnMP fluorescence. (Bar=100 μm). For (C) and (D), four separate experiments were performed with a minimum of 50 worms per data point per experiment. The data are representative for >90% of worms analyzed.
Because of the nature of the growth curve, we reasoned that heme homeostatis in C. elegans may be regulated in accordance with organismic needs and metabolic demands. […]
Pulse-Chase Analysis. […] At timed intervals, aliquots of worms were removed into the appropriate medium containing 10 mM NaN3 mounted on a slide and immediately analyzed with a 543 He/Ne laser on a Zeiss 410 confocal microscope, or with a Peltier-cooled Retiga 1300 12-bit CCD camera fitted on to a Leica DMIRE2 autofluorescence/DIC microscope. Images were further analyzed with SIMPLEPCI v5.2 Software (Compix, Inc.). […] No loss of fluorescence was observed when labeling experiments were performed in parallel in the presence of 1 mM NaN3 during the chase period and when worms were incubated in medium without hemin. To account for background autouluorescence in C. elegans, the sensor gain of the CCD camera or the laser was set to subtract any fluorescence obtained from control worms incubated in the presence of 40 μM hemin.

Series [3] relates to C. elegans wild-type N2 strain. Briefly: Worm culture and growth assay in axenic CeHR/mCeHR liquid medium. The settings on record: for support of worm growth as heme source: in vivo. The class given is in vivo. As for the experimental part:
(D) Biphasic response of C. elegans cultured in the presence of increasing amounts of hemin chloride (μM). Equal numbers of synchronized L1 larvae were grown in 24-well plates in mCeHR medium for 9 days and quantified (worms/μl) by microscopy. Each data point represents the mean±SD from three separate experiments performed in triplicate.
(A) Aerobic growth of C. elegans in mCeFIR medium with 20 μM hemin supplemented with either gallium protoporphyrin IX (GaPP) or gallium salts. Synchronized L1 larvae were grown for 9 days in 24-well plates and quantified (worms/μl) by microscopy. Each data point represents the mean from a single experiment, and each experiment was performed in triplicate. Inset depicts the GaPP analysis at lower concentrations for clarity.
(B) Effect of heme on the cytotoxicity of GaPP. Synchronized L1 larvae were inoculated in 24-well plates containing mCeHR medium with either 0, 2, 4, or 6 μM GaPP and increasing hemin (μM). The number of worms per μl was measured on day 9 and the data are presented as mean±SD.
FIG. 9 depicts worm utilization of heme-iron under iron deprivation. Equal numbers of synchronized L1 larvae were grown in the presence of 4, 20, and 100 μM hemin, either in basal mCeHR medium (set 1), or basal medium lacking exogenous iron (set 2), or as set 2 with 1 μM of the iron chelator ferrozine (set 3), or as set 3 with 486 μM ferrous ammonium sulfate (set 4). These values of ferrozine and iron were empirically determined by performing dose-response experiments and analyzing worm growth. The number of worms per μl was measured on day 9 and the data presented as mean±SD performed in triplicate. P<0.001 between sets 1 and 3.
To qualitatively and quantitatively determine the heme requirement of C. elegans, we assessed growth at various heme concentrations. Equal numbers of L1 larvae were inoculated in CeHR medium with either no cytochrome c and hemin, or with cytochrome c and increasing amounts of hemin (FIG. 4A). The effect of hemin became apparent within 48 hours and by 9 days, the heme-deplete worms were severely growth retarded at the L1/L2 stages. […] However, this stimulatory effect of heme was toxic to worms grown at heme concentrations >750 μM. To quantitatively assess the effect of heme on worms, we counted the number of live worms grown under different concentration of heme using DIC microscopy. […] On the basis of this association between heme and the growth and reproduction of C. elegans, we conclude that the biphasic nature of heme is likely due to the need for heme under heme-deprived conditions to perform essential metabolic functions, and the lethality of heme at high concentrations can be attributed to its cytotoxic activity.
Worm Culture and Growth Assays. Free-living worms were cultured in CeHR axenic liquid medium (Dr. Eric Clegg, Personal Communication). […] CeHR medium was modified (henceforth called mCeHR) to eliminate all sources of exogenously added heme; basal growth medium comprised 20 μM hemin chloride (Frontier Scientific, Logan, Utah) and 150 μM of ferrous ammonium sulfate (Sigma Chemicals). Worm strains were grown in mCeHR medium under aerobic conditions in tissue culture flasks at 20° C. ˜3.7×10^6 worms were routinely obtained after 3.5 to 4 days in a T75 flask with 30 ml basal medium from an initial inoculum of −1.5×10^5 worms. For initial culturing of worms in axenic media, three generations of worms were sequentially bleached (1.1% bleach/0.55 M NaOH) to eliminate any contaminating bacterial carryover from agar plates. In all dose-response experiments, worms were growth synchronized by treating the gravid hermaphrodite worms with bleach to dissolve adult worms. The eggs, resistant to bleach, were liberated from the carcasses and extensively washed with M9 buffer followed by overnight hatching in M9 buffer to synchronize growth. By harvesting at appropriate time intervals, synchronous larval stages and adult staged worms were collected for experimental manipulations. […]

On to `[N-]=[N+]=[N-]` [NaN3, sodium azide], for which the lethality to worms entry with C. elegans [1] (1 mM NaN3) is “not lethal”.
As to `CCC1=C(C)c2cc3[n-]c(cc4[n-]c(cc5nc(cc1n2)C(C)=C5CC)c(C)c4CCC(=O)O)c(CCC(=O)O)c3C.[Zn+2]` [ZnMP, zinc mesoporphyrin IX], the “time to discernable fluorescence signal in embryos” value in the series on C. elegans [2] is at most 130 min.
Consider `C=CC1=C(C)c2cc3[n-]c(cc4nc(cc5[n-]c(cc1n2)c(C)c5C=C)C(C)=C4CCC(=O)O)c(CCC(=O)O)c3C.[59Fe+2]` [^59Fe-heme], for which the “radiolabel signal in heme extracted from labeled worms” value in the series with C. elegans [1] was “specific signal”. Besides, the “59Fe-heme uptake in metabolically inhibited worms” value in the series on C. elegans [1] (in the presence of NaN3) is on record as “negligible”.
Consider `[Cl][59Fe]([Cl])[Cl]` [^59Fe], for which the “radiolabel signal in heme extracted from labeled worms” value in the series with C. elegans [1] is listed as “no radiolabeled signal”.
As to `O=S(=O)([O-])c1ccc(-c2nnc(-c3ccccn3)nc2-c2ccc(S(=O)(=O)[O-])cc2)cc1.[Na+].[Na+]` [ferrozine], in series [3] (1 μM ferrozine, medium lacking exogenous iron), the “effect on diminution in worm growth under iron deprivation” value was “further accentuated”.
For the molecule “Cytochrome c: hemoprotein used as heme source for worm growth”, in series [3], the “support of worm growth as heme source” value is “sustained worm growth”.
On the same count and under the same terms, the same measure for “hemoglobin: hemoprotein used as heme source for worm growth”: “sustained worm growth”.
